Values after ≈ are worked out from the molar mass of the structure shown. Counter-ions that a name gives are not always drawn. Like-named read-outs stand apart in the source and are kept apart here.
What was measured:
Type in all cases: cell-based
[1] = test system: Colo205 (ATCC CCL 222): human colon adenocarcinoma; assay: In vitro antitumor activity, MTT assay, Colo205; conditions: for IC50: Homo sapiens
Procedure: (§1) In vitro antitumor activity against human tumor cell lines
(§2) In vitro antitumor activity of the compounds according to the present invention was determined by MTT assay method against the following human tumor cell lines:
Colo205 (ATCC CCL 222): human colon adenocarcinoma
(§3) In this test, the known antineoplastic compounds, Doxorubicin and Sulofenur, were used as the comparative agents.
(§4) Each of the tumor cells was cultured in RPMI 1640 media containing 10% fetal bovine serum, 100 IU/ml penicillin and 100 μg/ml streptomycin, and then periodically subcultured once or twice per week in trypsin-EDTA solution containing 0.05% trypsin and 0.53mM EDTA.4Na. The human tumor cell line thus obtained (10,000cells/100 μl) was plated on 96-well microplate and then cultured for 24 hrs at 37° C. in a 5% CO2 incubator. Test compound was dissolved in DMSO, sterilized with 0.22 μm PVDF filter, and then serially 5-fold diluted from 40 μg/ml to 0.00256μg/ml. 100 μl of the sample solution thus prepared and RPMI 1640 medium only (control group) were added to 96-well microplate containing the human tumor cell, respectively. The final concentration of the test compound was in the range from 20 μg/ml to 0.00128 μg/ml and the concentration of DMSO was below 0.5%. The cells were cultured for 48 hrs at 37° C. in a 5% CO2 incubator. MTT(3-(4,5-Dimethylthiazole-2-yl)-e,5-diphenyltetrazoliumbromide) was dissolved in physiological saline in a concentration of 2 mg/ml and the resulting solution was filtered through 0.22 μm PTFE filter. 25 μl of MTT solution thus prepared was added to each well of 96-well microplate and incubated for additional 4 hrs at 37° C. in a 5% CO2 incubator. Then, the content of microplate was centrifuged at 1000 rpm for 10 min, and supernatant was removed by flicking. The formazan formed from MTT by mitochondrial succinate dehydrogenase was dissolved in 100 μl of DMSO. The absorbance of each well was measured at 540nm by micro ELISA reader and the cytotoxicity was calculated by dividing the absorbance of test group by the absorbance of control group. After the calculated cytotoxicity (%) was plotted, the concentration of 50% tumor growth inhibition concentration (IC50) was estimated by Linear-Regression method.

[2] = test system: SK-OV-3 (ATCC HTB 77): human ovarian adenocarcinoma; assay: In vitro antitumor activity, MTT assay, SK-OV-3; conditions: for IC50: Homo sapiens
Procedure: as §1, §2
SK-OV-3 (ATCC HTB 77): human ovarian adenocarcinoma
as §3, §4

[3] = test system: KB (ATCC CCL 17): human epidermoid carcinoma; assay: In vitro antitumor activity, MTT assay, KB; conditions: MTT, 48 hrs; for IC50: Homo sapiens, read-out: IC50 (KB)
Procedure: as §1, §2
KB (ATCC CCL 17): human epidermoid carcinoma
as §3, §4

[4] = test system: A549 (ATCC CCL 185): human lung carcinoma; assay: In vitro antitumor activity, MTT assay, A549; conditions: for IC50: Homo sapiens, A549, 48 h
Procedure: as §1, §2
A549 (ATCC CCL 185): human lung carcinoma
as §3, §4

[5] = test system: K562 (ATCC CCL 243): human chronic myelogenous leukemia; assay: In vitro antitumor activity, MTT assay, K562; conditions: Homo sapiens, K562, 48 h, Table 3, read-out: IC50 (K562)
Procedure: as §1, §2
K562 (ATCC CCL 243): human chronic myelogenous leukemia
as §3, §4

[6] = COLO 205, Table 2, 48 hrs, read-out: IC50 (Colo205)
[7] = COLO 205, Table 1, 48 hrs, read-out: IC50 (Colo205)

SMILES | IC50 [1, 6] | IC50 ([2]; SK-OV-3, Table 2, 48 hrs) | IC50 ([3]; Table 2) | IC50 ([4]; Table 2) | IC50 [1, 7] | IC50 ([2]; SK-OV-3, Table 1, 48 hrs) | IC50 ([3]; Table 1) | IC50 ([4]; Table 1) | other results
C=CCNCC(=O)N1c2ccc(S(=O)(=O)n3cc(-c4ccccc4)[nH]c3=O)cc2CC1C (centres unmarked) [Example 28, 4-phenyl-1-(N-allylaminoacetyl-2-methylindoline-5-sulfonyl)-2-imidazolone.HCl] | 1.05 µg/mL | 1.52 µg/mL | 1.12 µg/mL | 0.604 µg/mL | – | – | – | – | –
CC(C)NC(=O)N1c2ccc(S(=O)(=O)n3cc(-c4ccccc4)[nH]c3=O)cc2CC1C (centres unmarked) [Example 7, 4-phenyl-1-(N-isopropylcarbamoyl-2-methylindoline-5-sulfonyl)-2-imidazolone] | – | – | – | – | 0.102 µg/mL (≈ 0.232 µM) | 1.07 µg/mL (≈ 2.43 µM) | 0.162 µg/mL (≈ 0.368 µM) | 0.105 µg/mL (≈ 0.238 µM) | –
O=C(c1ccc([N+](=O)[O-])cc1)N1CCc2cc(S(=O)(=O)n3cc(-c4ccccc4)[nH]c3=O)ccc21 [Example 9, 4-phenyl-1-[N-(4-nitrobenzoyl)indoline-5-sulfonyl]-2-imidazolone] | – | – | – | – | 0.651 µg/mL (≈ 1.33 µM) | 0.106 µg/mL (≈ 0.216 µM) | 0.045 µg/mL (≈ 0.0917 µM) | 0.528 µg/mL (≈ 1.08 µM) | –
O=C(c1cccs1)N1CCc2cc(S(=O)(=O)n3cc(-c4ccccc4)[nH]c3=O)ccc21 [Example 17, 4-phenyl-1-(N-thiophenoylindoline-5-sulfonyl)-2-imidazolone] | – | – | – | – | – | – | – | – | IC50 (Colo205) ([1]; Table 1, 48 hrs): 0.386 µg/mL (≈ 0.855 µM); IC50 (SK-OV-3) ([2]; Table 1, 48 hrs): 0.729 µg/mL (≈ 1.61 µM); IC50 (KB) ([3]; Table 1): 0.008 µg/mL (≈ 0.0177 µM); IC50 (A549) ([4]; Table 1, 48 hrs): 0.046 µg/mL (≈ 0.102 µM)
CC(C)CNCC(=O)N1c2ccc(S(=O)(=O)n3cc(-c4ccccc4)[nH]c3=O)cc2CC1C (centres unmarked) [Example 25, 4-phenyl-1-(N-isobutylaminoacetyl-2-methylindoline-5-sulfonyl)-2-imidazolone.HCl] | 3.07 µg/mL | 1.4 µg/mL | 0.246 µg/mL | 3.23 µg/mL | – | – | – | – | –
CC1Cc2cc(S(=O)(=O)n3cc(-c4ccccc4)[nH]c3=O)ccc2N1C(=O)c1ccc(NC(=O)CCl)cc1 (centres unmarked) [Example 20, 4-phenyl-1-[N-(4-chloroacetylaminobenzoyl)-2-methylindoline-5-sulfonyl]-2-imidazolone] | 0.91 µg/mL (≈ 1.65 µM) | 0.598 µg/mL (≈ 1.09 µM) | 0.198 µg/mL (≈ 0.359 µM) | 0.509 µg/mL (≈ 0.924 µM) | – | – | – | – | –
O=C(c1cccnc1)N1CCc2cc(S(=O)(=O)n3cc(-c4ccccc4)[nH]c3=O)ccc21 [Example 15, 4-phenyl-1-(N-nicotinylindoline-5-sulfonyl)-2-imidazolone] | – | – | – | – | 0.382 µg/mL (≈ 0.856 µM) | 0.446 µg/mL (≈ 0.999 µM) | 0.015 µg/mL (≈ 0.0336 µM) | 0.112 µg/mL (≈ 0.251 µM) | –
CC(C)(C)NC(=O)N1CCc2cc(S(=O)(=O)n3cc(-c4ccccc4)[nH]c3=O)ccc21 [Example 8, 4-phenyl-1-(N-t-butylcarbamoylindoline-5-sulfonyl)-2-imidazolone] | – | – | – | – | 0.549 µg/mL (≈ 1.25 µM) | 2.67 µg/mL (≈ 6.07 µM) | 0.002 µg/mL (≈ 0.00454 µM) | 0.02 µg/mL (≈ 0.0454 µM) | –
CC1Cc2cc(S(=O)(=O)n3cc(-c4ccccc4)[nH]c3=O)ccc2N1C(=O)CCl (centres unmarked) [Example 21, 4-phenyl-1-(N-chloroacetyl-2-methylindoline-5-sulfonyl)-2-imidazolone] | 0.834 µg/mL (≈ 1.93 µM) | 4.71 µg/mL (≈ 10.9 µM) | 1.53 µg/mL (≈ 3.54 µM) | 1.13 µg/mL (≈ 2.61 µM) | – | – | – | – | –
CNC(=S)N1CCc2cc(S(=O)(=O)N3CC(c4ccccc4)NC3=O)ccc21 (centres unmarked) [Example 38, 4-phenyl-1-(N-methylthiocarbamoylindoline-5-sulfonyl)-4,5-dihydro-2-imidazolone] | – | – | – | – | – | – | – | – | IC50 [5]: 0.00452 µg/mL (≈ 0.0109 µM); IC50 ([1]; COLO 205, Table 3, 48 hrs, read-out: IC50 (Col205)): 0.65 µg/mL (≈ 1.56 µM); IC50 ([2]; SK-OV-3, Table 3, 48 hrs): 1.98 µg/mL (≈ 4.75 µM); IC50 ([4]; Table 3): 0.092 µg/mL (≈ 0.221 µM)
CC(C)NCC(=O)N1CCc2cc(S(=O)(=O)n3cc(-c4ccccc4)[nH]c3=O)ccc21 [Example 24, 4-phenyl-1-(N-isopropylaminoacetylindoline-5-sulfonyl)-2-imidazolone.HCl] | 3.35 µg/mL | 8.77 µg/mL | 0.879 µg/mL | 3.48 µg/mL | – | – | – | – | –
